Measurements from patent publication US8394779B2, “Methods of modulating angiogenesis via TRPV4” (Children's Medical Center Corporation, priority 2008, dated 2013).
Entries after “also recorded” stand apart in the source; their conditions may differ. Where no end group is shown, it is not given here. [ ]: non-standard residue; d: D form.

Legend:
[1] = test system: TRPV4-EGFP; assay: Whole-cell patch clamp of bovine CE cells transfected with TRPV4-EGFP; format: cell-based; details: 4 μM
Description: One day after bovine CE cells were transfected with TRPV4-EGFP, they were plated on gelatin-coated glass coverslips and allowed to grow for ˜24 h prior to recording. Cells were recorded in the whole-cell mode using borosilicate glass pipettes (1-3 MΩ) containing: (in mM) 120 CsMeSO3, 10 EGTA, 2 MgCl2, 10 HEPES; pH and osmolarity were adjusted with CsOH or HMeSO3, as needed, to 7.2 (23° C.) and ˜300 mOsm, respectively. Cells were bathed in a solution containing (in mM): 138 NaCl, 5 KCl, 1.8 CaCl2, 1 MgCl2, 10 HEPES; pH and osmolarity were adjusted with NaOH or HCl, as needed, to 7.4 (23° C.) and ˜310 mOsm, respectively. Cells were held at −40 mV for 3-5 min to allow for intracellular dialysis. Bath superfusion was stopped prior to initiating the recording of currents resulting from the indicated voltage protocol applied every 5 s. Immediately before use, a 4-α-PDD stock solution (2 mM in EtOH, on ice) was diluted 1:50 in bath solution under vortex and 50 μl was subsequently added to a still bath (0.5 ml) by pipette (final concentrations of 4 μM 4-α-PDD and 0.2% EtOH) and mixed by 3 gentle up/down pipette strokes. […]

[2] = target: T1, TRPV4 channels (Bos taurus, UniProt A0A8F4X677); assay: Calcium imaging with TRPV channel activator; format: cell-based; details: bovine CE cells, 2 μM
T1 construct: endogenous in cells; host or cells: bovine CE cells
T1 sequence (A0A8F4X677 1-871): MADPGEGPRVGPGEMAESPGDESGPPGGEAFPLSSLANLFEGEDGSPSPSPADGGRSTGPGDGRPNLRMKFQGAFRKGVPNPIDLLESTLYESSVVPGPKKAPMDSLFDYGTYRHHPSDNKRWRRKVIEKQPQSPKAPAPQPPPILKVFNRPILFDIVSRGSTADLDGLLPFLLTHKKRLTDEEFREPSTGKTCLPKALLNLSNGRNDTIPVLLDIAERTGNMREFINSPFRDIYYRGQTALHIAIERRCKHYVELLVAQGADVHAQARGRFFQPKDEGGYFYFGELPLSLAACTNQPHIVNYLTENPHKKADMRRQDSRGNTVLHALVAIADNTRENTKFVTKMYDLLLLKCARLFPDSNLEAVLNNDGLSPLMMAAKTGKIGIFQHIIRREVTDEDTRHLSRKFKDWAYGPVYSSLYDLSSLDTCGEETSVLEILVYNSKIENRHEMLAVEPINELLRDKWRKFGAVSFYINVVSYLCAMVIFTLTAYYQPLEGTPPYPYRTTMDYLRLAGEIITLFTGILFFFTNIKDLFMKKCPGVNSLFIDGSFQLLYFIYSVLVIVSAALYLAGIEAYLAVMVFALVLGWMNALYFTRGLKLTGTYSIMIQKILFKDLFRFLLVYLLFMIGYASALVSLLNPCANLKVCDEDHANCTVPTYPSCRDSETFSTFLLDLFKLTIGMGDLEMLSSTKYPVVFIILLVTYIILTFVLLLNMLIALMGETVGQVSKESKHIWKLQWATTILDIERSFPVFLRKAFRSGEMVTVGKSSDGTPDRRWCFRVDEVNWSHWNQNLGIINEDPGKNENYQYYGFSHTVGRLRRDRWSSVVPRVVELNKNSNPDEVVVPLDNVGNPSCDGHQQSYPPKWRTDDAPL
Description: (§1) CE cells cultured on fibronectin-coated 6 well UNIFLEX™ (FLEXCELL® International) plates for 24 hours were subjected to uniaxial cyclic stretch (10% elongation; 1 Hz frequency) for 1-2 h using a FLEXERCELL® TENSION PLUS™ System (FLEXCELL® International). In some experiments, CE cells were plated on fibronectin-coated 6 well BIOFLEX® (FLEXCELL® International) for lh and subjected to static stretch (15% elongation) for 1-15 min. Control cells were maintained under identical conditions in the absence of strain application. […] Images were acquired for every 4 seconds and analyzed using IP lab software and Microsoft Excel as described in Matthews, et. al. (2006) (J. Cell Sci., 119:508-518). Calcium imaging with TRPV channel activators was performed on cells cultured on MatTek glass bottomed dishes on LEICA® Confocal Microscope and analyzed using LEICA® software and MICROSOFT® EXCEL®. siRNA knock down of TRPV channels: smart pool siRNAs (10 nM) of TRPV2, TRPV4 (both from Dharmacon), TRPC1 (AMBION®) or control (QIAGEN®) siRNAs was transfected into CE cells using SILENTFECT™ reagent (BIORAD®) as described in Mammoto et. al. (2007) (J. Cell Sci., 120:456-467). […] The knock down of TRPV channel expression was assessed using RT-PCR with species-specific primers and Western blotting. […]

[3] = target: T2, TRPV4 channels (Homo sapiens, UniProt Q9HBA0); assay: Calcium imaging with TRPV channel activator; format: cell-based; details: human CE cells, 2 μM
T2 construct: host or cells: human dermal microvascular endothelial cells (HMVECs)
T2 sequence (Q9HBA0 whole entry): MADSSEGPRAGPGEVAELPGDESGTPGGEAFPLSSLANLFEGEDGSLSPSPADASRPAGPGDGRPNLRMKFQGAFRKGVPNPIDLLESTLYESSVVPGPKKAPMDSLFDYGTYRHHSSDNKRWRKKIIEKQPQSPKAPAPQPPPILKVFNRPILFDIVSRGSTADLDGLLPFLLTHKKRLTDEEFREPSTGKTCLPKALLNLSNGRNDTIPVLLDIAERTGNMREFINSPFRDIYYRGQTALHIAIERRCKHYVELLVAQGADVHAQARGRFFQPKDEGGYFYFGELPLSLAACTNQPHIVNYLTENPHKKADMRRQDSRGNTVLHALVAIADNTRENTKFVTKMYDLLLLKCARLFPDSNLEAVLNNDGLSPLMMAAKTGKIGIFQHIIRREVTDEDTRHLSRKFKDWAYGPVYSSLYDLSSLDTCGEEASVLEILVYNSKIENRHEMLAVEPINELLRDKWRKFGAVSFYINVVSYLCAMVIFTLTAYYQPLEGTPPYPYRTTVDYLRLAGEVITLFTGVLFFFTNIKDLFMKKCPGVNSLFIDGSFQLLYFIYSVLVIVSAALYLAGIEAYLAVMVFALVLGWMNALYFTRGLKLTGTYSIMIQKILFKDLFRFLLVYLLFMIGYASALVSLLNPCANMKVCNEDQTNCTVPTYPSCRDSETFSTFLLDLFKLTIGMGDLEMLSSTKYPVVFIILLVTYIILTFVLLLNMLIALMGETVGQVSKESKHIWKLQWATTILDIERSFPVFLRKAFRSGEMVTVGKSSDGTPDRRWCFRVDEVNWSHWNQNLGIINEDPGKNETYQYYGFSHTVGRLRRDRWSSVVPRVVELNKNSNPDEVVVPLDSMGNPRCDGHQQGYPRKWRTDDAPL
Description: as §1

[4] = test system: VEGF; details: cited from earlier work
[5] = mice; cited from earlier work
[6] = test system: bovine CE cells; assay: Cyclic strain-induced CE cell reorientation (alignment); format: cell-based
Description: as §1

[7] = test system: β1 integrin; assay: Strain-induced β1 integrin activation (GST-FNIII8-11 / 12G10 binding, T788/789 phosphorylation); format: cell-based; details: bovine CE cells, GST-FNIII8-11 and 12G10 binding
Description: (§2) Western blotting were performed according to methods published in Mammoto et. al. (2007) (J. Cell Sci., 120:456-467). Membranes containing transferred protein were blocked in 3% BSA/TBST for 1 h and incubated overnight with primary antibodies against AKT and phospho Ser-473 AKT (1:1000), phospho-Thr 788/789 of […] integrin cytoplasmic tail (1:1000), ERK1/2 and phospho ERK1/2 (1:1000), FAK and phospho FAK-pY397 (1:1000), actin (1:1000) and TRPV4 (1:1000) at 4° C. The membranes were subsequently washed incubated with HRP-conjugated secondary antibodies (1:5000) for 1 h and washed and incubated with SUPERSIGNAL® West Pico ECL reagent from Pierce Biotechnology Inc. (USA) and exposed to Kodak X-ray film (SIGMA ALDRICH®).
(§3) β1 integrin activation was measured using a glutathione S-transferase (GST) fusion protein consisting of FN III repeat 8-11 domains or 12G10 antibodies (Orr, A. W. et. al., 2006, Mol. Biol. Cell 17:4686-4697). Briefly, cells subjected to mechanical stretch were incubated with either 5 μg/ml of GST-FN III8-11 protein or 12G10 antibodies in PBS containing Ca^2+ and Mg^2+ for 30 min at 37° C., washed and lysed in SDS-sample buffer. The samples were separated on SDS-PAGE and the bound reagents were assessed on Western blots using anti GST-antibodies and HRP-conjugated secondary antibodies.

[8] = test system: β1 integrin; assay: Strain-induced β1 integrin activation (GST-FNIII8-11 binding, T788/789 phosphorylation); format: cell-based; details: human CE cells; 30 min pretreatment
Description: as §2, §3

[9] = test system: PI3K; assay: Strain-induced PI3K activity (GFP-AKT-PH translocation, AKT Ser-473 phosphorylation); format: cell-based, bovine; details: mechanical strain 15%
Description: Cells adherent to flexible ECM substrates and subjected to mechanical stretch were washed in PBS, fixed in 4% paraformaldehyde for 30 min either mounted on glass slides (for visualizing GFP-AKT-PH translocation) or permeabilized with 0.25% TRITON®-X 100/PBS for 5 min for immuno staining. […] Images were acquired on a LEICA® Confocal SP2 microscope and processed using LEICA® software and Adobe Photoshop. GFP-AKT-PH domain translocation to the plasma membrane was quantified measuring either ratio of the perimeter of whole cell membrane and the membrane that contains the GFP-AKT-PH domain or the ratio of GFP fluorescence intensity of translocated GFP-AKT-PH domain and cytosol adjacent to the membrane. […] Statistical differences between experimental groups were determined using the student t-test.
Membranes containing transferred protein were blocked in 3% BSA/TBST for 1 h and incubated overnight with primary antibodies against AKT and phospho Ser-473 AKT (1:1000), phospho-Thr 788/789 of 131 integrin cytoplasmic tail (1:1000), ERK1/2 and phospho ERK1/2 (1:1000), FAK and phospho FAK-pY397 (1:1000), actin (1:1000) and TRPV4 (1:1000) at 4° C. […]

[10] = test system: cytosolic calcium in CE cells; assay: Calcium influx on direct force application to cell surface integrins; format: cell-based, bovine; details: within 5 to 50 msec
[11] = test system: cytosolic calcium in CE cells; details: within 2-5 sec; cited from earlier work
[12] = test system: cytosolic calcium in CE cells; assay: Mechanical strain-induced calcium influx, FLUO-4 calcium imaging; format: cell-based, bovine; details: strain 15%, 3-4 sec, gadolinium chloride 25 μM, siRNA 10 nM
Description: as §1

[13] = test system: CE cells
[14] = test system: VEGF; details: in vivo; cited from earlier work

CCCCCCCCCC(=O)O[C@@H]1[C@@H](C)[C@@]2(O)[C@@H](C=C(CO)C[C@@]3(O)C(=O)C(C)=C[C@@H]23)[C@@H]2C(C)(C)[C@]12OC(=O)CCCCCCCCC [4-α-PDD, 4-α-phorbol 12, 13-didecanoate]
TRPV4 currents, whole-cell clamp [1]: robust TRPV4 currents
calcium signal [2]: robust calcium signal
calcium signal [3]: robust calcium signal

CN(C)c1ccc(/C=C2\C(=O)Nc3ccccc32)cc1 [SU 4312]
vessel formation [4]: blocked

CO[C@@H]1[C@H](OC(=O)NC(=O)CCl)CC[C@]2(CO2)[C@H]1[C@@]1(C)O[C@@H]1CC=C(C)C [TNP-470]
diet-induced and genetic obesity [5]: prevent
vascularity in the adipose tissue [5]: reduced

[Cl][Gd]([Cl])[Cl] [gadolinium chloride]
CE cell reorientation / re-alignment induced by mechanical strain [6]: greatly suppressed
β1 integrin activation in response to mechanical strain [7]: significantly inhibited
β1 integrin activation in response to mechanical strain [8]: significantly inhibited
strain-induced translocation of AKT-PH-GFP to the membrane [9]: inhibited
calcium influx on force application to integrins [10]: inhibited
calcium influx on direct force application to β1 integrins (magnetic tweezers) [11]: blocked
calcium influx / cytosolic calcium induced by mechanical strain [12]: almost completely abolished; also recorded: reduced influx

N.N.N.N.N.N.N.N.N.N.N.N.N.N.[Cl-].[Cl-].[Cl-].[Cl-].[Cl-].[Cl-].[O-2].[O-2].[Ru+3].[Ru+3].[Ru+4] [ruthenium red]
CE cell reorientation / re-alignment induced by mechanical strain [6]: significantly suppressed; also recorded: inhibits
CE cell apoptosis (poly(ADPribosyl) polymerase cleavage) [13]: did not effect
CE cell proliferation (Ki 67 staining) [13]: did not effect
calcium influx / cytosolic calcium induced by mechanical strain [12]: significantly suppressed; also recorded: reduced influx

dRK6: Anti-VEGF hexapeptide RRKRRR (SEQ. ID. NO. 12) ([dR][dR][dK][dR][dR][dR])
arthritis severity [14]: suppress and mitigate
